Patent US20040176274A1, “Analgesic methods using endothelin receptor ligands” (priority 2001, published 2004)
“And” between values parts separate entries of the source, which are not always exact repeats. Identical values can stand only once. Like-named read-outs stand apart in the source and are kept apart here. *1 amine or outer side, *2 acyl side, *3 side chain or, on linkers, in order; H or OH if unused. Where no end group is shown, it is not given here. Suc = O=C(CCC(=O)[*:2])[*:1]

How the values were obtained:
[1] = test system: ET-1-induced pain in the rat plantar hindpaw; assay type: in vivo
Excerpt: These examples are provided to illustrate the invention and should not be construed as limiting. ETA and ETB Receptors Mediate ET-1-induced Pain in the Rat Plantar Hindpaw An ET-1 animal model of acute pain was used to investigate the signaling pathways involved in endothelin receptor-mediated nociception. In this model system, acute pain was induced under sevoflurane anesthesia by subcutaneous ET-1 injection into the rat plantar hindpaw after 40 seconds of limb cooling. Injections were given either as a single 20 μl bolus for single compound or co-administration studies, or as two 10 μl injections separated by 1-2 minutes for pre-treatment studies, and were delivered into the mid plantar paw approximately 1 cm distal to the heel. Repetitive and spontaneous flinching of the ipsilateral hindpaw were counted in 5 minute blocks, beginning 5 minutes after ET-1 injection, for 75 minutes. […] Data was reported as the mean±s.e.m.

wild-type control mice = assay: ET-1 pain behavior (biting and licking) in wild-type control mice; assay type: in vivo; details: ET-1 100 pmol s.c. mouse plantar hindpaw, 30 minutes
Experimental: (§1) The duration of biting and licking events was used as a measure of pain responsiveness following subcutaneous administration of ET-1(100 pmol) into the mouse plantar hindpaw. The duration of these events was assessed in five minute periods for 30 minutes after ET-1 injection.

sciatic nerve C-fibers = assay: Electrophysiological recording of spike activity in nociceptive C-fibers after plantar hindpaw injection; assay type: in vivo, rat; details: ET-1 2 nmoles, IRL-1620 2 nmoles; s.c. plantar hindpaw injection
Excerpt: FIG. 5 is a representative series of electrophysiological recordings of C-fiber activity following subcutaneous plantar hindpaw injections of (A) ET-1 alone, (B) ET-1 and IRL-1620, and (C) ET-1, IRL-1620, and naloxone. The arrow in (A) indicates the time of ET-1 injection. The first and second arrows in (B) indicate the time of IRL-1620 and IRL-1620/ET-1 injections, respectively. The first and second arrows in (C) indicate the time of IRL-1620/naloxone and ET-1/IRL-1620/naloxone injections, respectively.
In order to confirm that ETB receptor activation inhibits the ET-1-induced pain response and that the inhibition is mediated through an opioid-sensitive mechanism, the spike response of IRL-1620 alone, and in combination with naloxone, were studied in nociceptive C-fibers. Spike activity was recorded in sciatic nerve C-fibers from twelve animals following subcutaneous plantar hindpaw injections of ET-1. The mean and maximum response frequencies following injection of ET-1 alone (2 nmoles) are 0.32±0.07 imp/s and 4.17+0.17 imp/s, respectively.

GIRK2 knockout mice = assay: ET-1 pain behavior (biting and licking) in GIRK2 knockout mice; assay type: in vivo; details: ET-1 100 pmol s.c. mouse plantar hindpaw, 30 minutes
Experimental: as §1

[2] = test system: cultured adult human primary keratinocytes; assay: β-endorphin release from cultured keratinocytes (radioimmunoassay); assay type: cell-based
Experimental: Cultured adult human primary keratinocytes, obtained during facelift procedures, were used to confirm that keratinocytes are the source of the extracellular β-endorphin that mediates ETB receptor-induced analgesia. Cultured keratinocytes were transferred to PBS and incubated in the presence of either 10 or 200 nM IRL-1620 for thirty or sixty minutes. Subsequently, the β-endorphin concentration in the PBS was measured by radioimmunoassay. In the absence of IRL-1620, the basal level of β-endorphin was 1.76±0.08 μg/ml. […] The intracellular concentration of β-endorphin in similarly treated cultured keratinocytes was 108±48 pg β-endorphin per 10^5 cells.

[3] = entire 75 minute observation period, dosages ET-1 2 nmol, BQ-788 60 nmol, IRL-1620 2 nmol, naloxone 55 nmol, tertiapin 20 pmol, mean ± s.e.m.
[4] = s.c. rat plantar hindpaw, dosages ET-1 2 nmol, BQ-788 60 nmol, IRL-1620 2 nmol, naloxone 55 nmol, tertiapin 20 pmol, mean ± s.e.m.
[5] = without ET-1, BQ-788 60 nmol bolus or 2 x 30 nmol, naloxone 55 nmol, tertiapin 20 pmol
[6] = 0.5 μg CL prior to ET-1 (2 nmol), 75 minute observation period, ET-1 line = control
[7] = 0.5 μg CL s.c. two minutes prior to ET-1 (2 nmol), ET-1 line = control
[8] = 0.5 μg CL, or equal volume of water (ET-1 + IRL-1620 line), prior to co-administration of ET-1 (2 nmol) and IRL-1620 (2 nmol)
[9] = CTOP 18.8 nmoles co-injected with ET-1 and IRL-1620
[10] = ET-1 4 nmol, s.c. rat plantar hindpaw
[11] = ET-1 6 nmol, s.c. rat plantar hindpaw
[12] = IRL-1620 4 nmol, alone or prior and co-administered with ET-1 2 nmol

Compound: CCCC[C@@H](NC(=O)[C@@H](Cc1cn(C(=O)OC)c2ccccc12)NC(=O)[C@H](CC(C)(C)C)NC(=O)N1[C@H](C)CCC[C@@H]1C)C(=O)O (relative stereo) [BQ-788, N-cis-2,6-dimethylpiperidinocarbonyl-L-gamma-methylleucyl-D-1-methoxycarbonyltryptophanyl-D-Nle]
- Total Number of Flinches [1, 3]: 17.3 ± 2.3 flinches
- MFF (maximal flinch frequency) [1, 4]: 5.8 ± 0.9 flinches per 5 minutes
- Time to MFF [1, 4]: 32.5 ± 10.2 min
- flinching behavior when administered alone compared to PBS control [1, 5]: did not result in altered flinching behaviors

Compound: COc1ccc2c(c[n+](C)c3c4cc5c(cc4ccc23)OCO5)c1OC [CL, Chelerythrine chloride]
- Total Number of Flinches [1, 6]: 253±7
- MFF (maximal flinch frequency) [1, 7]: 46±3 flinches per five minutes
- MFF (maximal flinch frequency) [1, 8]: 39±3 flinches per five minutes
- total flinches [1, 8]: 207±10
- toxicity ([1]; 0.8 μg CL s.c. rat plantar hindpaw): showed signs of toxicity

Compound: C=CCN1CC[C@]23c4c5ccc(O)c4O[C@H]2C(=O)CC[C@@]3(O)[C@H]1C5 [Naloxone, naloxone]
- Total Number of Flinches [1, 3]: 16.1 ± 4.1 flinches
- MFF (maximal flinch frequency) [1, 4]: 3.3 ± 0.8 flinches per 5 minutes
- Time to MFF [1, 4]: 28.6 ± 5.6 min
- flinching behavior when administered alone compared to PBS control [1, 5]: did not induce flinching behavior that was different from PBS control

Compound: Oc1ccc2c3c1O[C@H]1c4[nH]c5ccccc5c4C[C@@]4(O)[C@@H](C2)N(CC2CC2)CC[C@]314 [naltrindole]
- effect on flinching behavior ([1]; naltrindole with ET-1 alone or the ET-1/IRL-1620 combination): did not affect flinching behavior

Compound: Oc1ccc2c3c1O[C@H]1c4[nH]c5c(c4C[C@@]4(O)[C@@H](C2)N(CC2CC2)CC[C@]314)C[C@@]1(O)[C@H]2Cc3ccc(O)c4c3[C@@]1(CCN2CC1CC1)[C@H]5O4 [nor-BNI]
- effect on flinching caused by ET-1 administration alone ([1]; nor-BNI 3.4 mM): partially enhanced the flinching

Compound: Ala-Leu-Cys-Asn-Cys-Asn-Arg-Ile-Ile-Ile-Pro-His-Met-Cys-Trp-Lys-Lys-Cys-Gly-Lys-Lys (ALCNCNRIIIPHMCWKKCGKK) [Tertiapin, GIRK channel antagonist]
- Total Number of Flinches [1, 3]: 17 ± 6 flinches
- flinching behavior when administered alone compared to PBS control [1, 5]: did not induce flinching behavior that was different from naloxone or PBS control

Compound: CTOP
- MFF (maximal flinch frequency) [1, 9]: 31±4 flinches/5 minutes
- effect on IRL-1620 analgesia [1, 9]: blocked the analgesic effects of IRL-1620

Compound: Cys-Ser-Cys-Ser-Ser-Leu-Met-Asp-Lys-Glu-Cys-Val-Tyr-Phe-Cys-His-Leu-Asp-Ile-Ile-Trp [ET-1]
- total duration of biting and licking behavior (wild-type control mice): 152 ± 18 s
- maximum response frequency of C-fiber spike activity (sciatic nerve C-fibers): 4.17 ± 0.17 imp/s
- mean response frequency of C-fiber spike activity (sciatic nerve C-fibers): 0.32±0.07 imp/s
- total duration of biting and licking behavior (GIRK2 knockout mice): 218 ± 18 s
- Total Number of Flinches [1, 6]: 153±11
- MFF (maximal flinch frequency) [1, 7]: 27±2 flinches per five minutes
- flinching behavior returning to baseline ([1]; ET-1 4 nmol): ≤ 75 min
- start of flinching after injection ([1]; ET-1 4 nmol): 10 to 20 min
- animals with evoked ipsilateral hindpaw flinching ([1]; ET-1 4 nmol, n=12): 100%
- MFF (maximal flinch frequency) [1, 10]: 40.2±3.9 flinches per 5 minutes
- Time to MFF [1, 10]: 40.8 ± 2.8 min
- Total Number of Flinches ([1]; ET-1 4 nmol, entire 75 minute observation period): 178.5±29.1 flinches
- MFF (maximal flinch frequency) [1, 11]: 41.9±8.7 flinches per 5 minutes
- Time to MFF [1, 11]: 22.5 ± 4.1 min
- Total Number of Flinches ([1]; ET-1 6 nmol, entire 75 minute observation period): 253.3 ± 66.2 flinches
- MFF (maximal flinch frequency) [1, 4]: 23.8±1.9 flinches per 5 minutes and 24±2 flinches per 5 minutes

Compound: Suc-Asp-Glu-Glu-Ala-Val-Tyr-Phe-Ala-His-Leu-Asp-Ile-Ile-Trp (Suc-DEEAVYFAHLDIIW) [IRL-1620, ETB receptor agonist]
- change in extracellular β-endorphin ([2]; 10 nM IRL-1620, 60 minute incubation): did not result in a significant change
- extracellular β-endorphin concentration ([2]; 200 nM IRL-1620 in PBS, basal level 1.76±0.08 μg/ml): 10.5 ± 3 µg/mL
- increase in extracellular β-endorphin ([2]; 200 nM IRL-1620 versus basal): 5 fold
- intracellular concentration of β-endorphin ([2]; similarly treated cultured keratinocytes): 108±48 pg β-endorphin per 10^5 cells
- flinching behavior when administered alone compared to PBS control ([1]; IRL-1620 4 nmol alone): small but significant increase in flinching behavior
- MFF (maximal flinch frequency) [1, 12]: 4.7 ± 0.6 flinches per 5 minutes
- Time to MFF [1, 12]: 33.3 ± 6.1 min
- Total Number of Flinches ([1]; IRL-1620 4 nmol, alone or with ET-1 2 nmol, 75 minutes): 22.1 ± 3.1 flinches
